In patent publication US8617614B2, “Sustained release preparation for tissue regeneration therapy” (Ono Pharmaceutical Co., Ltd., priority 2006, dated 2013):

Tested on: hippocampal CA1 region nerve cells
Assay: Number of nerve cells in hippocampal CA1 region, rat 4-VO model (Nissl staining)
Assay type: in vivo
Conditions: for number of hippocampal CA1 pyramidal nerve cells relative to the group given the medium (Test Group 3): rat 4-VO Test 1, day 42, s.c. twice daily, present drug 10, ornoprostil 0.1, PGE1•αCD 1.5 and 3 mg/kg

Structure (SMILES) | Number of nerve cells per unit length (count/mm) Left (L) (rat 4-VO Test 1, Test Group 6: 1.5 mg/kg (as PGE1) s.c. twice daily 42 days) [count/mm] | number of hippocampal CA1 pyramidal nerve cells relative to the group given the medium (Test Group 3)
CCCCC[C@H](O)/C=C/[C@H]1[C@H](O)CC(=O)[C@@H]1CCCCCCC(=O)O [PGE1•αCD, prostaglandin E1, reference compound] | 105.7 ± 24.0 | significant increase
CCCC[C@H](C)C[C@H](O)/C=C/[C@H]1[C@H](O)CC(=O)[C@@H]1CC(=O)CCCCC(=O)OC [ornoprostil, reference compound] | – | significant increase
